Our source for the IC50 values is patent US20240150301A1, “METHODS OF MODULATING ANDROGEN RECEPTOR CONDENSATES” (ETERN BIOPHARMA (SHANGHAI) CO., LTD., priority 2021, published 2024).

The structures appear in SMILES notation.

One assay has as its target T1, AR (Homo sapiens, UniProt P10275).
T1 sequence (P10275 1-920 T878A): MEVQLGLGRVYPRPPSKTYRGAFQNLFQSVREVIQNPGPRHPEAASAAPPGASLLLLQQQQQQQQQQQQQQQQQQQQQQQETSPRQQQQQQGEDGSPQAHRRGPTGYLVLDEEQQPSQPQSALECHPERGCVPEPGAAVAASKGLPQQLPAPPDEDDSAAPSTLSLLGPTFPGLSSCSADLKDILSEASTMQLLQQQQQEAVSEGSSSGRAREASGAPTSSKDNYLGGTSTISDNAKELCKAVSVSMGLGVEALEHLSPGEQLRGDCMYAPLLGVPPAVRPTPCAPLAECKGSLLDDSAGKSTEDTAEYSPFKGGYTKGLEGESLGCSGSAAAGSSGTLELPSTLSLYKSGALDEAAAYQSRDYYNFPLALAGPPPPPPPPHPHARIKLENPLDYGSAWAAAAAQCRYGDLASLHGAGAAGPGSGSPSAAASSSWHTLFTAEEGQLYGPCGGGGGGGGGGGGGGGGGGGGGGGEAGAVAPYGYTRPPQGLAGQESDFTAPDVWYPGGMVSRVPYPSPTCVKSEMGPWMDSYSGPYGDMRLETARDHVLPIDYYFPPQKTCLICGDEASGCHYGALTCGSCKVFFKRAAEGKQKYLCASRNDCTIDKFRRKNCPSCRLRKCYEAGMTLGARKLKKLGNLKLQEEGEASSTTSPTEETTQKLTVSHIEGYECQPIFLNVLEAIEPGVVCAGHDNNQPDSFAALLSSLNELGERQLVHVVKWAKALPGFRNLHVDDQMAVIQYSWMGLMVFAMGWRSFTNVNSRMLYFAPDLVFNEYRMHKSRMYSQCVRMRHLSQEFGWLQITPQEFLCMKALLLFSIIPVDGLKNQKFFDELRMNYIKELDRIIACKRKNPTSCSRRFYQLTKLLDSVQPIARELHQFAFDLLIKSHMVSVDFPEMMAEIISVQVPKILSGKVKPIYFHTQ
Put plainly: ARE-luciferase reporter assay in LNCaP cells (DHT-induced). The class given is cell-based. The following applies: 1 nM DHT, 24 h, normalized to cell viability, read-out: LNCaP ARE-luc IC50. As to the method: (§1) The ARE-luciferase reporter plasmid contains functional AREs (androgen response elements) to which AR binds in response to androgen to induce luciferase activity. LNCaP (Cobioer) cells were transiently transfected with the ARE-luciferase reporter in charcoal stripped FBS/phenol red-free RPMI medium prior to treatment for 24 hours. Then DMSO or test compounds with serial diluted concentrations were added one hour prior to the addition of DHT(1 nM). After 24 h of incubation with DHT, cells were lysed and luciferase activity was assayed using the ONE-Glo™ Luciferase Assay System (Promega) and measured using EnVision Multimode Plate Reader, according to manufacturer's instructions. Values were normalized to cell viability determined by CellTiter-Glo® Luminescent Cell Viability Assay Kit (Promega). […] GraphPad Prism graphing software was used to calculate IC50 values.

The target in the next assay is T2, AR V7 (Homo sapiens, UniProt P10275).
T2 sequence (P10275 1-644 isoform P10275-3): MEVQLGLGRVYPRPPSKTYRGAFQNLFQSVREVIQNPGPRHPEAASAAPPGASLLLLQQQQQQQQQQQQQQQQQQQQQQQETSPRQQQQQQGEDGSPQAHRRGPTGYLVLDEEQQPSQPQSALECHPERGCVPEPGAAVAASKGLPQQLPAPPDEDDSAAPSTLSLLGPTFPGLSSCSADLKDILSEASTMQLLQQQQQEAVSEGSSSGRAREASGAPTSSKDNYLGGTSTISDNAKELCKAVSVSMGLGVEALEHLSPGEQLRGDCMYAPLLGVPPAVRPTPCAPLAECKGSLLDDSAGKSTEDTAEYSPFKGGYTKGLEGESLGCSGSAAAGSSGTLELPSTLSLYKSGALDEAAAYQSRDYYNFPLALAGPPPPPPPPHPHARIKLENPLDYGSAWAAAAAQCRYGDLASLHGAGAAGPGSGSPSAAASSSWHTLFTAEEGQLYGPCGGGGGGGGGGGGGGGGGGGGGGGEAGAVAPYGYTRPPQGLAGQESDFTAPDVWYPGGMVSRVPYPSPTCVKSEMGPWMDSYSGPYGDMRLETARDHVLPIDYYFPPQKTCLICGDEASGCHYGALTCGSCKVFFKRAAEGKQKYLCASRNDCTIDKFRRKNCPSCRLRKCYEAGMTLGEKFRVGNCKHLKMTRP
Put plainly: ARE-luciferase reporter assay in HEK293T cells cotransfected with AR-V7. The class given is cell-based. Details: host or cells: HEK293T. To be noted: HEK293T cotransfected with AR-V7, hormone-starved, 24 h; read-out: HEK293T(V7) ARE-luc IC50. Here is the method:
as §1
To evaluate the transcriptional activity of AR-V7, HEK293T(Cobioer) cells were transiently cotransfected with an expression vector for AR-V7 and the ARE-luciferase reporter in hormone-starved conditions. For 22Rv1(Cobioer) prostate cancer cell line, which expresses endogenous AR-V7, ARE-luciferase reporter was transiently transfected in hormone-starved conditions. 24 h after transfection, DMSO or test compounds with serial diluted concentrations were added for additional 24 h incubation. Reporter activity was detected and normalized by cell viability as described above. Treatments were normalized to DMSO control activity, and IC50 values were further determined via GraphPad Prism graphing software.
(A reporter such as luciferase makes a cellular process visible.)

What is called IC50 is the point on the concentration scale where inhibition reaches its midpoint. As to `CC(C)(c1ccc(C#Cc2cnc(NS(C)(=O)=O)nc2)cc1)c1cc(Cl)c(OCCCl)c(C#N)c1` [Compound 60, N-(5-((4-(2-(3-chloro-4-(2-chloroethoxy)-5-cyanophenyl)propan-2-yl)phenyl)ethynyl)pyrimidin-2-yl)methanesulfonamide], the IC50 at AR stood at 4.7 µM; at AR V7, 8.9 µM.
On the same counts, the results for `CC(C)(c1ccc(OCc2ccnc(N=S3(=O)CCNCC3)n2)cc1)c1cc(Cl)c(OCCCl)c(C#N)c1` [Compound 6, 3-chloro-2-(2-chloroethoxy)-5-(2-(4-((2-((1-oxido-1λ^6-thiomorpholin-1-ylidene)amino)pyrimidin-4-yl)methoxy)phenyl)propan-2-yl)benzonitrile] are 3.5 µM and 2.1 µM.
With `CC(C)(c1ccc(OCc2ccnc(NS(C)(=O)=O)n2)cc1)c1cc(Cl)c(OCCCl)c(C#N)c1` [Compound AA, N-(4-((4-(2-(3-chloro-4-(2-chloroethoxy)-5-cyanophenyl)propan-2-yl)phenoxy)methyl)pyrimidin-2-yl) methane sulfonamide, reference compound], the figures for the IC50 at AR and at AR V7 were 12.6 µM and over 20 µM, respectively.
